Here are results for 2 compounds from article PMC3083694, “Effects of Intermediates between Vitamins K2 and K3 on Mammalian DNA Polymerase Inhibition and Anti-Inflammatory Activity” (International Journal of Molecular Sciences, 2011).

In test [1] the target is T1, Human DNA polymerase γ (Homo sapiens, UniProt P54098).
T1 construct: made in house
T1 sequence (P54098 1-1239): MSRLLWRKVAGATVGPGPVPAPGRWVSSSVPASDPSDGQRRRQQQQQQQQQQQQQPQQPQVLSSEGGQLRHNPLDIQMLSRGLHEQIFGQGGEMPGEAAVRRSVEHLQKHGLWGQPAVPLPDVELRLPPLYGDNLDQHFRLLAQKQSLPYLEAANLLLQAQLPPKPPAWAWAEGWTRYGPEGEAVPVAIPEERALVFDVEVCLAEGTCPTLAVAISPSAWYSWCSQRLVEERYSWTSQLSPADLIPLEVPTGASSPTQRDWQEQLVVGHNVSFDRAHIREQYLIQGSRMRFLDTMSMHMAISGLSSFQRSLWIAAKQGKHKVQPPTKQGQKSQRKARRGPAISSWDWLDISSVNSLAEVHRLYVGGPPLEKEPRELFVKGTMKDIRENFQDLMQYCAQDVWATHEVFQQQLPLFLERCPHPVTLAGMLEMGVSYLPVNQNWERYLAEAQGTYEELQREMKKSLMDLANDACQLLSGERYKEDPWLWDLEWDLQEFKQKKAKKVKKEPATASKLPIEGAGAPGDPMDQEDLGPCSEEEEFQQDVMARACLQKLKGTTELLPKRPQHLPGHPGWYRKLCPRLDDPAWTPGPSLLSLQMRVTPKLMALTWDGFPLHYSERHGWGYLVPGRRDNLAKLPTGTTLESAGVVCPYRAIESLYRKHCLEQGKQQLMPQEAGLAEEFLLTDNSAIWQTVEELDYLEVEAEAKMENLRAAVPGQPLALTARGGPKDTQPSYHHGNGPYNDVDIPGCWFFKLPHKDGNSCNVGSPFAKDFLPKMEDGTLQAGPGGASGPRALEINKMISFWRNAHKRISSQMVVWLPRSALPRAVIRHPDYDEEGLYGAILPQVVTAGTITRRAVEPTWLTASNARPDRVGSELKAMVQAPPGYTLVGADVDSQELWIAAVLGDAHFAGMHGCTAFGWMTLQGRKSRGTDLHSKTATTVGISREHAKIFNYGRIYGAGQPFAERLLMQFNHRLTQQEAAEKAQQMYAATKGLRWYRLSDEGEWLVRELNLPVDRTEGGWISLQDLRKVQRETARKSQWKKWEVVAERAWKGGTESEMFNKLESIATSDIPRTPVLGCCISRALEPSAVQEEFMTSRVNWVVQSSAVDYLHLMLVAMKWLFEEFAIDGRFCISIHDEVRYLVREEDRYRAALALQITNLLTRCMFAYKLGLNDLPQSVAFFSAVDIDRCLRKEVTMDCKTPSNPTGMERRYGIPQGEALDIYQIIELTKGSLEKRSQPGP
Also on record: method as in PMID 18312466, PMID 18698499, PMID 20030669, PMID 20881898. As to conditions: earlier work of the authors; cited from earlier work.

In test [2] the target is T2, Human DNA polymerase δ (Homo sapiens, UniProt P28340).
T2 construct: made in house
T2 sequence (P28340 whole entry): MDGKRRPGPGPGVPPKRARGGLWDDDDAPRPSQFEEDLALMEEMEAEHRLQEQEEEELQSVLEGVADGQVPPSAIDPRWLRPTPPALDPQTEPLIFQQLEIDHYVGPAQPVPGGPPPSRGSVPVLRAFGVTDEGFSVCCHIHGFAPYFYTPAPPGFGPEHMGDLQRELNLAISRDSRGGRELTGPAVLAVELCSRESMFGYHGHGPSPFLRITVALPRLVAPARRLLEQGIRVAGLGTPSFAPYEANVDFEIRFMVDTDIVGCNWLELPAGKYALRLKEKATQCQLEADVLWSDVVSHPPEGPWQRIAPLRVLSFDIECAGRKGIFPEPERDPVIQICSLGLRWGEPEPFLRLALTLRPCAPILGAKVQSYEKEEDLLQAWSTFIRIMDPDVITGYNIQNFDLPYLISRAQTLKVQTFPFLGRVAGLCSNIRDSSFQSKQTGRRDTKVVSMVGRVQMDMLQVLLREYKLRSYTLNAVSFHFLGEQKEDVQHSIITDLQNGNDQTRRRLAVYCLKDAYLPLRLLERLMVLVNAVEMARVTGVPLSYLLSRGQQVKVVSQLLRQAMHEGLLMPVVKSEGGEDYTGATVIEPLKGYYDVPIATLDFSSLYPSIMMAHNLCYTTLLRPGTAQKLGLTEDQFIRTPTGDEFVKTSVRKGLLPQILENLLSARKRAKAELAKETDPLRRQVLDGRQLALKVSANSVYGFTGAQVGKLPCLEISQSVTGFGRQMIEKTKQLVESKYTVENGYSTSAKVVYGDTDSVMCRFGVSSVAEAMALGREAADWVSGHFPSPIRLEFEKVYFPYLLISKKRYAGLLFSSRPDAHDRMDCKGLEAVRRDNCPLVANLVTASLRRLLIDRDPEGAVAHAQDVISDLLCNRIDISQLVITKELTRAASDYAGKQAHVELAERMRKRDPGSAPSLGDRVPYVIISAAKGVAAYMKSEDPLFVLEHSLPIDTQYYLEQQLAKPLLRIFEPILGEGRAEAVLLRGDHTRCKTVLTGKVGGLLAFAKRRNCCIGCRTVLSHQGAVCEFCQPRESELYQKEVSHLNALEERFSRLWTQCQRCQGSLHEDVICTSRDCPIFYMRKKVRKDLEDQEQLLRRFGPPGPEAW
The test is described as follows: DNA polymerase activity assay, human pol δ. Format: biochemical. As to conditions: B-family pol; read-out: IC50 Value of MK-2, Human DNA polymerase δ. The method, then:
(§1) Pols from mammals, a fish (cherry salmon), an insect (fruit fly) and a plant (cauliflower) were purified, and prokaryotic pols and other DNA metabolic enzymes, such as T7 RNA polymerase, T4 polynucleotide kinase and bovine deoxyribonuclease I, were purchased as described in our previous report. The activities of all pols and other DNA metabolic enzymes were measured as described in previous reports.
(§2) The components of the pol assay were poly(dA)/oligo(dT)18 and dTTP as the DNA template-primer and 2′-deoxyribonucleoside 5′-triphosphate (dNTP) substrate, respectively. VK2, VK3, and their synthesized derivatives (i.e., MK-3, MK-2 and MK-1) were dissolved in dimethyl sulfoxide (DMSO) at various concentrations and sonicated for 30 s. The sonicated samples (4 μL) were mixed with 16 μL of each pol enzyme (final amount, 0.05 units) in 50 mM Tris-HCl (pH 7.5) containing 1 mM dithiothreitol, 50% glycerol and 0.1 mM EDTA, and kept at 0 °C for 10 min. […] Activity without the inhibitor was considered to be 100%, and the activity remaining at each concentration of inhibitor was determined relative to this value. […]

For test [3], the target named is Cherry salmon DNA polymerase δ (Oncorhynchus masou, UniProt Z9UCE0HTX2). The test is described as follows: DNA polymerase activity assay, cherry salmon pol δ. Conditions: fish pol; read-out: IC50 Value of MK-2, Cherry salmon DNA polymerase δ. Format: biochemical. The method, then: as §1, §2
Cherry salmon DNA polymerase δ, sequence (Z9UCE0HTX2 1-856): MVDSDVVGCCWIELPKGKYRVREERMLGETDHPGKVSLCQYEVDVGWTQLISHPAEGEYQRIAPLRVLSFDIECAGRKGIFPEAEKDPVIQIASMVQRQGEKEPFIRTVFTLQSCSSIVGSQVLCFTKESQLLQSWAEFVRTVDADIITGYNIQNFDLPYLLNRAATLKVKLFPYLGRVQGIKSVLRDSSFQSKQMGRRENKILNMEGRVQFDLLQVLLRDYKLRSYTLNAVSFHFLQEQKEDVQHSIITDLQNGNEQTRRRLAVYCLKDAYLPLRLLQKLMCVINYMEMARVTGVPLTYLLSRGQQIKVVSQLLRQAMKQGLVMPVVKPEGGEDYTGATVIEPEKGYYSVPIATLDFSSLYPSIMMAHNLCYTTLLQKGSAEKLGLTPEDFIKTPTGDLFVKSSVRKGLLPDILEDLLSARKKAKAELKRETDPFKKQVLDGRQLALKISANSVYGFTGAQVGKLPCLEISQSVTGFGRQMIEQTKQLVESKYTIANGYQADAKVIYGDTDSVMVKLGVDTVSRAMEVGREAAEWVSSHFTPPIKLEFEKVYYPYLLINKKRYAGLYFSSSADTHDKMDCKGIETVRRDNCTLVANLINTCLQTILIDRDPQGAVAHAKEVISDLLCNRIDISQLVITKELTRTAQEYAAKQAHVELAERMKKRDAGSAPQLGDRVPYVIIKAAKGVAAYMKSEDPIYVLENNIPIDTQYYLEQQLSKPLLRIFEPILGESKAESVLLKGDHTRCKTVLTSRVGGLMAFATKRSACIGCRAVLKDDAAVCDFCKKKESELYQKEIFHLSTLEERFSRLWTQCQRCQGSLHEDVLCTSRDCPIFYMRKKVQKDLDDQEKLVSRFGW
Test [4] concerns the target X-family pols (mammalian). Description: DNA polymerase activity assay, mammalian X-family pols. Format: biochemical, mammals. Conditions: range over mammalian X-family pols β, λ, TdT; read-out: 50% inhibition of the X family of pols. On the procedure:
as §1, §2

The target of test [5] is T3, Mouse DNA polymerase ι (Mus musculus, UniProt Q6R3M4).
T3 construct: made in house
T3 sequence (Q6R3M4 whole entry): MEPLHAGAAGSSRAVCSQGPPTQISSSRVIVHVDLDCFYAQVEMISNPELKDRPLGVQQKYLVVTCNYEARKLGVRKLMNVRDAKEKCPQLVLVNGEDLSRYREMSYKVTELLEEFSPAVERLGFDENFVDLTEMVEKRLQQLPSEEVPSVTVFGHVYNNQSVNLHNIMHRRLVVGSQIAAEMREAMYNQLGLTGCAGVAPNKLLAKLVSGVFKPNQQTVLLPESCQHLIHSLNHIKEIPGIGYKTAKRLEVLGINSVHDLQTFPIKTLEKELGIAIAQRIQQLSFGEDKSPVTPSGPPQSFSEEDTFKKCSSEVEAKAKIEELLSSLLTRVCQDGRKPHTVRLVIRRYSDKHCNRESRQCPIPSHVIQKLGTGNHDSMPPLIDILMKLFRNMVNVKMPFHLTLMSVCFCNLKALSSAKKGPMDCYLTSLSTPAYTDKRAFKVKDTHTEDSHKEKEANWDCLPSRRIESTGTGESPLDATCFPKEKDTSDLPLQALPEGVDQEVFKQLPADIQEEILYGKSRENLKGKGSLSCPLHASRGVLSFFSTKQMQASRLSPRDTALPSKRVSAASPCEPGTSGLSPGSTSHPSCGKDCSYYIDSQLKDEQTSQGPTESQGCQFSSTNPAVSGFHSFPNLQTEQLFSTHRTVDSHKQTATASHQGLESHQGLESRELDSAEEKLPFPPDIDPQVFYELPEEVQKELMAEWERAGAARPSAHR
The test is described as follows: DNA polymerase activity assay, mouse pol ι. Format: biochemical. Conditions: Y-family pol; read-out: IC50 Value of MK-2, Mouse DNA polymerase ι. On the procedure: as §1, §2

Test [6] addresses Calf Terminal deoxynucleotidyl transferase (Bos taurus, UniProt P06526). The test is described as follows: DNA polymerase activity assay, calf TdT. Format: biochemical. As to conditions: X-family pol; read-out: IC50 Value of MK-2, Calf Terminal deoxynucleotidyl transferase. The method, then: as §1, §2

Calf Terminal deoxynucleotidyl transferase, sequence (P06526 whole entry): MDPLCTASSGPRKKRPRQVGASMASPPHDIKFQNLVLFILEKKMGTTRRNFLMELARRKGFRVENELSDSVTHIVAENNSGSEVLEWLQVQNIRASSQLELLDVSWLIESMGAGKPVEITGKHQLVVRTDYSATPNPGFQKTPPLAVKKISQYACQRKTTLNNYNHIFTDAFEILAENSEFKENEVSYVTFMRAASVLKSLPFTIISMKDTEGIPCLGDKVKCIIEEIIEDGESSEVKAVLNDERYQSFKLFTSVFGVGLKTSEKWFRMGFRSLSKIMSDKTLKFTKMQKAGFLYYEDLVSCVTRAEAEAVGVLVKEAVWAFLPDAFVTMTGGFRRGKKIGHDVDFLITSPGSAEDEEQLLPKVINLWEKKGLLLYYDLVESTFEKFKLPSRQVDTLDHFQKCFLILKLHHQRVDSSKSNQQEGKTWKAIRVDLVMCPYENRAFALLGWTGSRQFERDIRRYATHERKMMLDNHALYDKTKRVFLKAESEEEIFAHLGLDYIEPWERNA

With `CC(C)=CCC/C(C)=C/CC/C(C)=C/CC/C(C)=C/CC1=C(C)C(=O)c2ccccc2C1=O` [MK-4, menaquinone 4, reference compound], the “Inhibitor of human pol γ” value in test [1] is given as “not”.
Take `CC(C)=CCC/C(C)=C/CC1=C(C)C(=O)c2ccccc2C1=O` [MK-2]: the IC50 in test [2] was 29.1 ± 1.8 µM; in test [3] it was 32.5 ± 1.9 µM; in test [4] it was 24.6 to 31 µM; in test [5], 39 ± 2.3 µM; in test [6] it was 29.4 ± 1.7 µM.
